Values after ≈ are worked out from the molar mass of the structure shown. Read-outs that look alike come from different tables or passages of the source. Where only a bound is given, the exact number is not on record here.

For data set [1], the system named is Mycobacterium tuberculosis H37Rv. As to the kind of experiment: MIC and MBC by broth microdilution against M. tuberculosis H37Rv. It counts as cell-based, Mycobacterium tuberculosis H37Rv (ATCC 27294). For orientation: Broth dilution looks for growth in wells or tubes with falling amounts of substance.
In data set [2] the test system is M. avium DSM 44156. The data set is described as follows: MIC and MBC against M. avium. The data set is classed as cell-based.
In data set [3] the test system is M. smegmatis mc2 155. The data set is described as follows: MIC and MBC against M. smegmatis. The data set is classed as cell-based.
For data set [4], the system named is M. bovis BCG. As to the kind of experiment: microbe, parasite or virus in culture. The conditions noted are these: Mycobacterium tuberculosis variant bovis BCG. The data set is classed as cell-based.
Data set [5] in a line: Cytotoxicity assay in THP-1 cells. The conditions noted are these: human; THP-1 cells; lethal concentration for 50% of the cell population; read-out: LC50 (the source's name). The data set is classed as cell-based, human. The method, boiled down: (§1)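 Cytotoxicity was expressed as LC50, the concentration lethal to 50% of cells. A toxicity/activity index was calculated as LC50 divided by MIC.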

The subject of data set [6] is human monocytic cell line THP-1 (ATCC56 TIB202). The data set is described as follows: Cytotoxicity assay in THP-1 cells. The conditions noted are these: toxicity/activity index: ratio LC50 (THP-1) / MIC (M. tuberculosis H37Rv). The data set is classed as cell-based. The gist of the method:
as §1

For data set [7] the following is noted: pH 7.4.
Data set [8] deals with Mycobacterium smegmatis homogenate. The data set is described as follows: Stability in Mycobacterium smegmatis homogenate (enzymatic hydrolysis). The conditions noted are these: Mycobacterium smegmatis homogenate, 37°C.
Data set [9] concerns Mycobacterium Bovis BCG infecting human macrophages THP-1. The data set is classed as cell-based. The conditions noted are these: compound concentration 2 µg/ml.
The nature of data set [10]: Stability in Mycobacterium smegmatis homogenate (enzymatic hydrolysis). The conditions noted are these: mycobacterium smegmatis homogenate, pH 7.4.
The nature of data set [11]: Chemical stability in phosphate buffer pH 7.4.
The nature of data set [12]: Stability in human plasma (enzymatic hydrolysis).
Experimental: The studies of stability in human plasma were performed in human plasma diluted to 80% with phosphate buffer pH 7.4 of total concentration 0.05 M and ionic strength 0.15 M at 37°C. […] Study of enzymatic hydrolysis. […] Initial substrate concentration (ester) - 5×10^-4M with 2% ACN.
Pooled human plasma (960 µL), pH 7.4 phosphate buffered saline (216 µL), 18 µL ACN and 6 µL of a 10-1 M stock solution of the prodrug in ACN were mixed in a 2mL vial. The suspensions were incubated at 37 °C and 50 µL aliquots were removed, mixed with 450 µL of ACN: ZnSO4 1% 1:1 and centrifuged. The supernatant was removed and analysed by HPLC, the remaining substrate and the correspondent acid measured.
Two HPLC systems were used. The buffer and plasma stability studies were performed in an HPLC system with a photodiode detector L-3000 Photo Diode Array Detector, Merck-Hitachi L-6000 pump, Merck-Hitachi D-2500 integrator, and Merck RP-8 column. […] The eluant was a mixture of acetonitrile (60%/70%) and aqueous phosphate buffer with 5% of KH2PO4/H3PO4 0.025M (40%/30%). The flow rate was always 1 mL/1 min and wavelength was set at 230 nm. All quantifications were evaluated using calibration curves from stock solutions.
The initial substrate concentration was 5 x 10^-4 M in all stability assays. All incubations were carried out at pH 7.4 and 37 °C under agitation using the phosphate buffer described above as diluting agent. […] Acetonitrile (2%) was used in all studies to ensure adequate solubilization of the substrates. The benzoates were added from 10 to 1M acetonitrile stock solutions. After incubation, aliquots of 50 µL were taken into vials containing 450 µL of a 1:1 solution of 1% zinc sulfate and acetonitrile, mixed in a vortex and centrifuged for 10 min at 15,000 rpm. The supernatant was then injected into the HPLC and analysed for quantification of benzoic acid and remaining benzoate. All quantifications were performed using calibration curves.
[13] abbreviates: Mycobacterium tuberculosis, H37RV, M. tuberculosis H37Rv, Table 3.
[14] abbreviates: Mycobacterium tuberculosis, H37RV, M. tuberculosis H37Rv, Table 4.
Setting [15] is: Mycobacterium tuberculosis, H37RV, M. tuberculosis H37Rv, Tables 3, 6 and 7.
The mark [16] stands for this setting: Mycolicibacterium smegmatis, MC2155.

As for `CCCCCCCCNC(=O)c1cc([N+](=O)[O-])cc([N+](=O)[O-])c1` [Compound 7c, N-octyl-3.5-dinitrobenzamide], the MBC is 0.016 µg/mL (≈ 0.0495 µM) in data set [1] (setting [13]); not above 0.062 µg/mL in data set [1] (setting [14]); 64 µg/mL (≈ 198 µM) in data set [2] (Mycobacterium avium, DSM44156); 4 µg/mL (≈ 12.4 µM) in [3] (setting [16]); 0.015 µg/mL (≈ 0.0464 µM) in data set [4]. For the same compound, the MIC in data set [1] (setting [14]) was not above 0.062 µg/mL; in data set [1] (setting [15]), 0.016 µg/mL (≈ 0.0495 µM); in data set [2] (Mycobacterium avium, DSM44156), 32 µg/mL (≈ 99 µM); in data set [3] (setting [16]) it was 0.25 µg/mL (≈ 0.773 µM); in data set [4] it was 0.015 µg/mL (≈ 0.0464 µM). Further, the CC50 in data set [5] came out at 97 µg/mL (≈ 300 µM). For the same compound, the T/A in data set [6] was determined as 6063. Besides, the “Degradation (%) 24h” value was 0% in [7] and 3% in data set [8]. For the same compound, the “Degradation (%) 48h” value in data set [7] is 0%; in data set [8], 5%. Besides, in data set [7], the “Degradation (%) 72h” value is reported as 0%. In addition, the “Degradation (%) 168h” value in data set [7] is given as 0%. Further, the “Degradation (%) 332h” value in data set [7] stood at 0%.

As to `CCCCCCCCCCCCCCNC(=O)c1cc([N+](=O)[O-])cc([N+](=O)[O-])c1` [Compound 7f, N-tetradecyl-3.5-dinitrobenzamide], the MBC is 0.25 µg/mL (≈ 0.613 µM) in data set [1] (setting [13]), not above 0.5 µg/mL in [1] (setting [14]), 4 µg/mL (≈ 9.82 µM) in data set [3] (setting [16]) and 0.25 µg/mL (≈ 0.613 µM) in [4]. For the same compound, the MIC in data set [1] (setting [14]) was not above 0.5 µg/mL; in [1] (setting [15]) it was 0.125 µg/mL (≈ 0.307 µM); in data set [3] (setting [16]), 1 µg/mL (≈ 2.45 µM); in data set [4], 0.25 µg/mL (≈ 0.613 µM). In addition, the “CFU x10^4” value was found to be 9.2 CFUs per mL in data set [9] (Time 0 days), 14.16 CFUs per mL in [9] (Time 1 day), 10.08 CFUs per mL in data set [9] (Time 3 days) and 13.91 CFUs per mL in data set [9] (Time 7 days). Moreover, in data set [5], the CC50 was 330 µg/mL (≈ 810 µM). The T/A in data set [6] stood at 2640. Further, the “Degradation (%) 24h” value in data set [8] is listed as 1%. In addition, in data set [8], the “Degradation (%) 48h” value is 2%.

`CCCCCCNC(=O)c1cc([N+](=O)[O-])cc([N+](=O)[O-])c1` [Compound 7b, N-hexyl-3.5-dinitrobenzamide]: the MBC in data set [1] (setting [13]) was 0.031 µg/mL (≈ 0.105 µM); in data set [1] (setting [14]), not above 0.5 µg/mL; in data set [3] (setting [16]), 1 µg/mL (≈ 3.39 µM); in [4], 0.25 µg/mL (≈ 0.847 µM). Further, the MIC in data set [1] (setting [14]) was not above 0.5 µg/mL; in data set [1] (setting [15]) it was 0.031 µg/mL (≈ 0.105 µM); in data set [3] (setting [16]) it was 1 µg/mL (≈ 3.39 µM); in data set [4] it was 0.25 µg/mL (≈ 0.847 µM). In addition, the “CFU x10^4” value in [9] (Time 0 days) is reported as 9.2 CFUs per mL; in data set [9] (Time 1 day), 4.58 CFUs per mL; in data set [9] (Time 3 days) it was 0.40 CFUs per mL; in [9] (Time 7 days), 0.05 CFUs per mL. Besides, the CC50 in data set [5] was 361 µg/mL (≈ 1220 µM). The T/A in data set [6] is on record as 11645. Moreover, the half-life (in general, how long it takes for the measured level to halve) at 500 µM in data set [10] was 82.5 ± 1.4 h. The “Degradation (%) 24h” value in data set [8] stood at 18%. Also, the “Degradation (%) 48h” value in data set [8] was found to be 33%.

As to “N-butyl-3.5-dinitrobenzamide [Compound 7a]”, the MBC in data set [1] is 0.5 µg/mL; in [2] (M. avium DSM 44156), 512 µg/mL; in [3] (M. smegmatis mc2 155) it was 4 µg/mL. Besides, the results for the MIC in data set [1], in data set [2] (M. avium DSM 44156) and in data set [3] (M. smegmatis mc2 155) were 0.5 µg/mL, 64 µg/mL and 4 µg/mL, respectively.

Consider `CCCCCCCCCCCCNC(=O)c1cc([N+](=O)[O-])cc([N+](=O)[O-])c1` [Compound 7e, N-dodecyl-3.5-dinitrobenzamide], for which the MBC in data set [1] (setting [13]) is 0.5 µg/mL (≈ 1.32 µM); in data set [1] (setting [14]) it was 0.5 µg/mL (≈ 1.32 µM); in data set [2] (Mycobacterium avium, DSM44156), more than 341 µg/mL; in [3] (setting [16]), more than 2.66 µg/mL; in data set [4], 0.166 µg/mL (≈ 0.437 µM). Further, the MIC in data set [1] (setting [14]) is 0.5 µg/mL (≈ 1.32 µM); in [1] (setting [15]), 0.5 µg/mL (≈ 1.32 µM); in data set [2] (Mycobacterium avium, DSM44156), more than 341 µg/mL; in [3] (setting [16]), 0.66 µg/mL (≈ 1.74 µM); in data set [4], 0.083 µg/mL (≈ 0.219 µM). Besides, the CC50 in [5] was 72 µg/mL (≈ 190 µM). In addition, the T/A in [6] worked out at 144. Also, the entries for the “Degradation (%) 24h” value in [11] (24h), in data set [12] (24h) and in [8] were 0%, 0% and 1%, respectively. The “Degradation (%) 48h” value in data set [11] (48h) was 0%; in [12] (48h), 0%; in data set [8], 2%. Further, the “Degradation (%) 72h” value in data set [11] (72h) and in data set [12] (72h) was 0% throughout. Moreover, in [11] (168h), the “Degradation (%) 168h” value is recorded as 0%. For the same compound, the “Degradation (%) 332h” value in [11] (332h) is listed as 0%.

The record behind these values is EP4345091A1, “BENZOIC ACID DERIVATIVES, METHODS AND USES THEREOF” (priority 2022, dated 2024).
